Measured values from ChEMBL document CHEMBL5038615, “Discovery of a cinnamyl piperidine derivative as new neddylation inhibitor for gastric cancer treatment” (Eur J Med Chem, 2021).
The source made the active and inactive calls. No cut-off for these calls is given here.

How the values were obtained:
[1] = test system: A549; experiment: Antiproliferative activity against human A549 cells assessed as inhibition of cell proliferation measured after 72 hrs by MTT assay; format: functional, cell-based; details: A549, 72 h
[2] = test system: MCF7; experiment: Antiproliferative activity against human MCF7 cells assessed as inhibition of cell proliferation measured after 72 hrs by MTT assay; format: functional, cell-based; details: MCF7, 72 h
[3] = test system: MGC-803; experiment: Cell cycle arrest in human MGC-803 cells assessed as accumulation of cells at S phase at 2.5 uM measured after 24 hrs by Flowcytometry assay (reference value: 36.51%); format: functional
[4] = test system: MGC-803; experiment: Cell cycle arrest in human MGC-803 cells assessed as accumulation of cells at G0/G1 phase at 7.5 uM measured after 24 hrs by Flowcytometry assay (reference value: 46.01%); format: functional
[5] = test system: HGC-27; experiment: Inhibition of cell migration in human HGC-27 cells at 1.5 to 6 uM measured after 24 to 48 hrs by wound healing assay based inverted microscopic analysis; format: functional; details: dose 1.5-6 µM, time 24-48 hrs
[6] = test system: MGC-803; experiment: Induction of apoptosis in human MGC-803 cells assessed as late apoptotic cells at 2.5 uM measured after 24 hrs by AnnexinV/FITC staining based flow cytometry method (reference value: 2%); format: functional
[7] = test system: MGC-803; experiment: Induction of apoptosis in human MGC-803 cells assessed as late apoptotic cells at 5 uM measured after 24 hrs by AnnexinV/FITC staining based flow cytometry method (reference value: 2%); format: functional
[8] = test system: MGC-803; experiment: Induction of apoptosis in human MGC-803 cells assessed as necrotic cells at 5 uM measured after 24 hrs by AnnexinV/FITC staining based flow cytometry method (reference value: 1.9%); format: functional
[9] = test system: MGC-803; experiment: Induction of apoptosis in human MGC-803 cells assessed as necrotic cells at 2.5 uM measured after 48 hrs by AnnexinV/FITC staining based flow cytometry method (reference value: 0.2%); format: functional
[10] = test system: MGC-803; experiment: Induction of apoptosis in human MGC-803 cells assessed as early apoptotic cells at 5 uM measured after 48 hrs by AnnexinV/FITC staining based flow cytometry method (reference value: 1.5%); format: functional
[11] = test system: MGC-803; experiment: Induction of apoptosis in human MGC-803 cells assessed as necrotic cells at 7.5 uM measured after 48 hrs by AnnexinV/FITC staining based flow cytometry method (reference value: 0.2%); format: functional
[12] = test system: HGC-27; experiment: Induction of apoptosis in human HGC-27 cells assessed as necrotic cells at 3 uM measured after 24 hrs by AnnexinV/FITC staining based flow cytometry method (reference value: 1.2%); format: functional
[13] = test system: HGC-27; experiment: Induction of apoptosis in human HGC-27 cells assessed as viable cells at 6 uM measured after 24 hrs by AnnexinV/FITC staining based flow cytometry method (reference value: 95.7%); format: functional; details: read-out: Activity
[14] = test system: HGC-27; experiment: Induction of apoptosis in human HGC-27 cells assessed as early apoptotic cells at 6 uM measured after 24 hrs by AnnexinV/FITC staining based flow cytometry method (reference value: 0.7%); format: functional
[15] = test system: HGC-27; experiment: Induction of apoptosis in human HGC-27 cells assessed as early apoptotic cells at 3 uM measured after 48 hrs by AnnexinV/FITC staining based flow cytometry method (reference value: 5.8%); format: functional
[16] = test system: HGC-27; experiment: Induction of apoptosis in human HGC-27 cells assessed as necrotic cells at 6 uM measured after 48 hrs by AnnexinV/FITC staining based flow cytometry method (reference value: 0.1%); format: functional
[17] = test system: HGC-27; experiment: Induction of apoptosis in human HGC-27 cells assessed as viable cells at 9 uM measured after 48 hrs by AnnexinV/FITC staining based flow cytometry method (reference value: 93.18%); format: functional; details: read-out: Activity
[18] = test system: HGC-27; experiment: Induction of apoptosis in human HGC-27 cells assessed as early apoptotic cells at 9 uM measured after 48 hrs by AnnexinV/FITC staining based flow cytometry method (reference value: 5.8%); format: functional
[19] = test system: MGC-803; experiment: Induction of apoptosis in human MGC-803 cells assessed as reduction of mitochondrial membrane potential at 7.5 uM measured after 24 hrs by JC-1 staining based Flowcytometry assay (reference value: 3.8%); format: functional; parameters: scale not given: the % may be the effect or the level left
[20] = test system: HGC-27; experiment: Induction of apoptosis in human HGC-27 cells assessed as reduction of mitochondrial membrane potential at 3 uM measured after 24 hrs by JC-1 staining based Flowcytometry assay (reference value: 2.4%); format: functional; parameters: scale not given: the % may be the effect or the level left
[21] = test system: HGC-27; experiment: Induction of apoptosis in human HGC-27cells assessed as reduction of mitochondrial membrane potential at 6 uM measured after 24 hrs by JC-1 staining based Flowcytometry assay (reference value: 2.4%); format: functional; parameters: scale not given: the % may be the effect or the level left
[22] = test system: MGC-803; experiment: Induction of apoptosis in human MGC-803 cells assessed as upregulation of Bid at 2.5 to 7.5 uM measured after 24 hrs by Western blot assay; format: functional, cell-based; details: dose 2.5-7.5 µM
[23] = test system: HGC-27; experiment: Induction of apoptosis in human HGC-27 cells assessed as upregulation of Bid at 3 to 9 uM measured after 24 hrs by Western blot assay; format: functional, cell-based; details: dose 3-9 µM
[24] = test system: HGC-27; experiment: Induction of apoptosis in human HGC-27 cells assessed as ROS levels at 9 uM measured after 24 hrs by DCFH-DA staining based flow cytometry assay (reference value: 6.8%); format: functional
[25] = test system: MGC-803; experiment: Antitumour activity against human MGC-803 cells xenografted in NOD-SCID mouse assessed as reduction on tumour growth at 100 mg/kg/day, IG measured after 21 days relative to control; format: functional; details: MGC-803, po, 504 h, time 21 day, read-out: TGI
[26] = Toxicity in NOD-SCID mouse xenografted with human MGC-803 cells assessed as change in body weight at 50 to 100 mg/kg/day, IG measured after 21 days; format: organism-based; details: in vivo, po, 504 h, dose 50-100 mg/kg/day, time 21 day
[27] = biological target: T1, NEDD8-activating enzyme E1 regulatory subunit (Homo sapiens) (UniProt Q13564); experiment: Inhibition of NAE-mediated neddylation in human MGC-803 cells assessed as cullin3-Nedd8 adduct formation at 2.5 to 7.5 uM measured after 24 hrs by western blot assay; format: cell-based; details: dose 2.5-7.5 µM
T1 sequence (whole entry): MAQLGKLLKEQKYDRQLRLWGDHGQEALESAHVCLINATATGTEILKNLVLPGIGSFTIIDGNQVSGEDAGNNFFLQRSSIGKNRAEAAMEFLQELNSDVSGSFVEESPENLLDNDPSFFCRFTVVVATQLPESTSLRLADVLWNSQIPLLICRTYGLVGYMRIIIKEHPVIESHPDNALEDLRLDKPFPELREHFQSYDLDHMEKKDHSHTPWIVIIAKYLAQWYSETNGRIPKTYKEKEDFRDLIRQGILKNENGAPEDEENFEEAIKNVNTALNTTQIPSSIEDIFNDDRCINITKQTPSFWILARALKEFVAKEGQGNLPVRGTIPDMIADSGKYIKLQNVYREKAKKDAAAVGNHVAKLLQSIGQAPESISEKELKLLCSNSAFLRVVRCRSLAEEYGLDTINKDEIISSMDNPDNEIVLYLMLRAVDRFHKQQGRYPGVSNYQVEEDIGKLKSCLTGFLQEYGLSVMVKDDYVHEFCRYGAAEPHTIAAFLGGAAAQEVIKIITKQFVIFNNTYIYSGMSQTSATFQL

[28] = biological target: T1, NEDD8-activating enzyme E1 regulatory subunit (Homo sapiens); experiment: Inhibition of NAE-mediated neddylation in human MGC-803 cells assessed as cullin5-Nedd8 adduct formation at 2.5 to 7.5 uM measured after 24 hrs by western blot assay; format: cell-based; details: dose 2.5-7.5 µM

Question: With `CCCCCc1ccc(NC(=O)C2CCN(C/C=C/c3ccccc3)CC2)cc1` as the molecule, how does the IC50 [1] read?
Answer: The IC50 was 3.88 µM.

Question: And the IC50 [2]?
Answer: Its IC50 is 3.74 µM.

Question: What about the Activity [3] of the same molecule?
Answer: The Activity was 33.01%.

Question: What about the Activity [4] of the same molecule?
Answer: Its Activity is 37.06%.

Question: What about the inhibition [5] of the same molecule?
Answer: The inhibition was “Dose-Dependent Effect”.

Question: And the Activity [6]?
Answer: The Activity was 3.6%.

Question: What about the Activity [7] of the same molecule?
Answer: Its Activity is 10.9%.

Question: What about the Activity [8] of the same molecule?
Answer: Its Activity is 8.2%.

Question: What about the Activity [9] of the same molecule?
Answer: Its Activity is 2.9%.

Question: And the Activity [10]?
Answer: The Activity was 9.8%.

Question: What about the Activity [11] of the same molecule?
Answer: Its Activity is 0%.

Question: And the Activity [12]?
Answer: The Activity was 0.4%.

Question: What about the viability at 6 µM [13] of the same molecule?
Answer: Its viability at 6 µM is 25.4%.

Question: What about the Activity [14] of the same molecule?
Answer: Its Activity is 23.1%.

Question: What about the Activity [15] of the same molecule?
Answer: The Activity was 6.2%.

Question: What about the Activity [16] of the same molecule?
Answer: The Activity was 0.7%.

Question: And the viability at 9 µM [17]?
Answer: The viability at 9 µM was 0.3%.

Question: And the Activity [18]?
Answer: The Activity was 0.2%.

Question: And the Activity [19]?
Answer: Its Activity is 70%.

Question: What about the Activity [20] of the same molecule?
Answer: Its Activity is 4.4%.

Question: What about the Activity [21] of the same molecule?
Answer: The Activity was 45.3%.

Question: And the Activity [22]?
Answer: The Activity was “Dose-Dependent Effect”.

Question: And the Activity [23]?
Answer: Its Activity is “Dose-Dependent Effect”.

Question: What about the Activity [24] of the same molecule?
Answer: Its Activity is 25.7%.

Question: What about the inhibition in vivo at 100 mg/kg/day [25] of the same molecule?
Answer: Its inhibition in vivo at 100 mg/kg/day is 39.2%.

Question: What about the Activity [26] of the same molecule?
Answer: The Activity was “Non-Toxic”.

Question: What about the inhibition [27] of the same molecule?
Answer: The inhibition was “Active”.

Question: What about the inhibition [28] of the same molecule?
Answer: The inhibition was “Active”.
